Experimental data: patent US20020037327A1, “Treatment for cancer and compounds for use therein” (priority 1997, published 2002)
Where two headings read alike, the source gives them in different places.

What was measured:
[1] = Water solubility of the prepared compound; assay type: physicochemical
Method: Bismuth iodiscorbate was prepared by dissolving 58 g of concentrated hydriodic acid (56.1 weight-percent) into 350 mls of water. Next, 5 g of 0.0085 molar bismuth (III) iodide was crushed in a mortar, and then dissolved in the solution. Next, 2.3 g of 0.0085 molar strontium hydroxide octahydrate was stirred into the solution, followed by the addition of 4.5 g of 0.026 molar L-ascorbic acid. The mixture was stirred for three hours, then stripped to dryness on a rotary evaporator. The residue then was redissolved in 500 ml water and filtered, and again stripped on a rotary evaporator. This process assisted in the removal of excess hydriodic acid. The residue again was dissolved in 500 ml of water, filtered, and stripped to dryness on a rotary evaporator. An orange solid then was removed from the flask and bottled. This procedure yielded 9.1 g of what is designated as SrBiI2[ascorbate]3. This compound was water soluble.
Potassium iodiscorbate was prepared by adding 6.5 g of 0.12 molar potassium hydroxide and 16.0 g of 0.06 molar strontium hydroxide octahydrate to 500 ml water in a 1000-ml beaker, resulting in a white, cloudy solution. The mixture was stirred for about 2 hours. Next, 13.0 g of 0.06 molar hydriodic acid (56 weight-percent) was added, and the mixture was stirred for three hours. Next, […] of 0.18 molar L-ascorbic acid was added, turning the mixture clear in about 5 minutes. The mixture then was stirred for another 0.5 hour. The water was removed under vacuo, and the residue dried under vacuum for about 8 hours. The solids were removed from the flask and bottles. The structure is designated as [ascorbate]2SrK[ascorbate]KI. This compound also was water soluble.
Zinc iodiscorbate was prepared by adding 4.0 g of 0.05 molar zinc oxide and 13.3 g of 0.05 molar strontium hydroxide octahydrate to 500 ml of distilled water, resulting in a white suspension. The mixture then was treated with 11.2 g of 0.05 molar concentrated hydriodic acid and stirred for two hours. A white suspension still remained. […]

[2] = tested on: ME-180 uterine cervix carcinoma cells; test: In vitro percent cell survival, crystal violet assay, uterine cervix carcinoma cells; assay type: cell-based, human; conditions: 48 hours; for survival of human cervical carcinoma cells (ME-180): concentration not given
Method: (§1) Three compounds of the present invention, specifically, bismuth iodiscorbate, potassium iodiscorbate, and zinc iodiscorbate, were tested in vitro on both tumorous and normal human cells. Three cell lines were obtained through the American Type Culture Collection (Rockville, Maryland). The first cell line, designated HUV-EC-C, consisted of human umbilical cord vein normal endothelial cells. These noncancerous cells were used as a control. The second cell line, MCF-7, consisted of breast carcinoma cells. The third cell line, ME-180, consisted of uterine cervix carcinoma cells.
(§2) The data shown in FIGS. 5-7 were derived by the following steps. HUV-EC-C was cultured in a solution of 90% F12 medium (GIBCO-BRL, Grand Island, N.Y.) and 10% fetal bovine serum (Hyclone, Logan, Utah) with 100 μg/ml heparin and 30 μg/ml ECGF (endothelial cell growth factor; Sigma Chemical Co., St. Louis, Mo.). MCF-7 and ME-180 were grown in a solution of 90% minimal essential medium (GIBCO-BRL) and 10% fetal bovine serum (Hyclone). The cells were grown to approximately 90% confluence in T25 cell culture flasks (Falcon-Becton Dickinson Labware, Franklin Lakes, N.J.) in a 37° C. humidified incubator in the presence of 5% C02−95% air.
(§3) Flasks were removed from the incubator and placed in a sterile laminar flow hood. All cell manipulation procedures were performed in this sterile hood. The flasks were rinsed in 5 ml of sterile phosphate-buffered saline (PBS; Sigma) and the monolayer of cells was released from the flask by adding 5 ml of 1X trypsin-EDTA (Sigma) in PBS. The flask was capped and placed back in the incubator for 10 minutes. The flasks were removed from the incubator, and cells plus trypsin-EDTA solution were transferred to a 15 ml centrifuge tube (Falcon) and 5 ml of cell growth medium was added. The tubes were centrifuged at 500 g for 10 minutes at room temperature. The tubes then were placed back in the hood and supernatant (top liquid) was removed with a sterile pipette (Falcon). […] The cell density in the hemacytometer was determined by counting cells visible by microscopy. […]

[3] = tested on: MCF-7 breast carcinoma cells; test: In vitro percent cell survival, crystal violet assay, breast carcinoma cells; assay type: cell-based, human; conditions: 48 hours
Method: as §1, §2, §3

[4] = tested on: HUV-EC-C human umbilical cord vein normal endothelial cells; test: In vitro percent cell survival, crystal violet assay, normal endothelial cells (control); assay type: cell-based; conditions: 48 hours
Method: as §1, §2
Flasks were removed from the incubator and placed in a sterile laminar flow hood. […] The cell density in the hemacytometer was determined by counting cells visible by microscopy. […]

[5] = tested on: cells at high density (near confluence in culture dishes); test: Treatment of cells at high density (near confluence); assay type: cell-based, human; conditions: 400 μg/ml
Excerpt: FIG. 5 depicts percent cell survival against various concentrations of potassium iodiscorbate.

[6] = tested on: mice; test: In vivo toxicology study in mice
Method: A toxicology study also was performed. Specifically, the toxicology of potassium iodiscorbate was evaluated through in vivo tests on mice. Potassium iodiscorbate was prepared as a stock solution of 175 mg/ml in saline and administered to mice. Injections consisted of a volume not exceeding 0.1 ml administered through the tail vein (intravenously), or a volume not exceeding 0.2 ml (by an intraperitoneal route). Doses up to 1000 mg/kg (intraperitoneal injection) and 500 mg/kg (intravenous injection) caused no apparent toxicity. This dose should permit use of the compounds of the present invention in concentrations (refer to FIGS. 5-7) that approximate those necessary for selective inhibition of malignant cell growth.

Substance | solubility in water [1] | survival of human cervical carcinoma cells (ME-180) [2] | survival of human breast cancer cells (MCF-7) ([3]; concentration not given) | solubility in water ([1]; product as prepared) | growth of normal human endothelial cells (HUV-EC-C) ([4]; any concentration tested) | effect on cells at high density [5] | doses that caused no apparent toxicity ([6]; intraperitoneal injection) | doses that caused no apparent toxicity ([6]; intravenous injection (tail vein)) [mg/kg] | survival of breast carcinoma cells (MCF-7) ([3]; concentrations greater than 100 μg/ml) | survival of cervical carcinoma cells (ME-180) with respect to normal cell growth ([2]; about 80-100 μg/ml) | normal cell growth (HUV-EC-C) ([4]; about 80-100 μg/ml) | survival of breast carcinoma cells (MCF-7) with respect to normal cell growth ([3]; about 80-100 μg/ml)
Bismuth iodiscorbate | water soluble | effective in reducing the survival | effective in reducing the survival |  |  |  |  |  |  |  |  | 
Potassium iodiscorbate |  | reduced dramatically the survival |  | water soluble | did not affect the growth | little effect | up to 1000 mg/kg | ≤ 500 | reducing dramatically the survival |  |  | 
Zinc iodiscorbate |  |  |  | water soluble |  |  |  |  |  | reduced dramatically | without serious reduction of normal cell growth | reduced dramatically
